These results are taken from US6638973B2, “Taxane formulations” (FSU Research Foundation, Inc., priority 2000, dated 2003).

The first experiment relates to HCT116 cells. Put plainly: In vitro cytotoxicity measured by the cell colony formation assay. Particulars: HCT116 cells, 72 h incubation with drug, colonies counted after 7 days; ID50 = drug concentration producing 50% inhibition of colony formation; read-out: IN VITRO ID 50 (nm) HCT116. The class given is cell-based. Summed up: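 Colony-forming survival was scored 7 days after a 72 h, 37 °C compound exposure followed by washout into fresh medium.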
Regarding `COC(=O)O[C@H]1C[C@H]2OC[C@@]2(OC(C)=O)C2[C@H](OC(=O)c3ccccc3)[C@]3(O)C[C@H](OC(=O)[C@H](O)[C@@H](NC(=O)OC(C)C)c4cccs4)C(C)=C([C@@H](O)C(=O)[C@@]21C)C3(C)C` (stereo partly drawn) [Compound 4144], the IC50 was below 1 nM. Regarding `CCOC(=O)O[C@H]1C[C@H]2OC[C@@]2(OC(C)=O)C2[C@H](OC(=O)c3ccccc3)[C@]3(O)C[C@H](OC(=O)[C@H](O)[C@@H](NC(=O)OC(C)C)c4cccs4)C(C)=C([C@@H](O)C(=O)[C@@]21C)C3(C)C` (stereo partly drawn) [Compound 4151], the IC50 was below 1 nM. For the compound `CCOC(=O)O[C@H]1C[C@H]2OC[C@@]2(OC(C)=O)C2[C@H](OC(=O)c3ccccc3)[C@]3(O)C[C@H](OC(=O)[C@H](O)[C@@H](NC(=O)C=C(C)C)c4cccs4)C(C)=C([C@@H](O)C(=O)[C@@]21C)C3(C)C` (stereo partly drawn) [Compound 4164], the IC50 was below 1 nM.

Consider `CCOC(=O)O[C@H]1C[C@H]2OC[C@@]2(OC(C)=O)C2[C@H](OC(=O)c3ccccc3)[C@]3(O)C[C@H](OC(=O)[C@H](O)[C@@H](NC(=O)c4ccccc4)c4cccs4)C(C)=C([C@@H](O)C(=O)[C@@]21C)C3(C)C` (stereo partly drawn) [Compound 4188], for which the IC50 was below 10 nM. As for `COC(=O)O[C@H]1C[C@H]2OC[C@@]2(OC(C)=O)C2[C@H](OC(=O)c3ccccc3)[C@]3(O)C[C@H](OC(=O)[C@H](O)[C@@H](NC(=O)c4ccco4)c4cccs4)C(C)=C([C@@H](O)C(=O)[C@@]21C)C3(C)C` (stereo partly drawn) [Compound 4222], the IC50 was below 1 nM. The same measure, in the same setting: the same measure for `CCOC(=O)O[C@H]1C[C@H]2OC[C@@]2(OC(C)=O)C2[C@H](OC(=O)c3ccccc3)[C@]3(O)C[C@H](OC(=O)[C@H](O)[C@@H](NC(=O)OC(C)(C)C)c4cccs4)C(C)=C([C@@H](O)C(=O)[C@@]21C)C3(C)C` (stereo partly drawn) [Compound 4234]: below 1 nM.

On to `COC(=O)O[C@H]1C[C@H]2OC[C@@]2(OC(C)=O)C2[C@H](OC(=O)c3ccccc3)[C@]3(O)C[C@H](OC(=O)[C@H](O)[C@@H](NC(=O)C=C(C)C)c4cccs4)C(C)=C([C@@H](O)C(=O)[C@@]21C)C3(C)C` (stereo partly drawn) [Compound 4244], for which the IC50 was below 1 nM. With `CCOC(=O)O[C@H]1C[C@H]2OC[C@@]2(OC(C)=O)C2[C@H](OC(=O)c3ccccc3)[C@]3(O)C[C@H](OC(=O)[C@H](O)[C@@H](NC(=O)c4ccco4)c4cccs4)C(C)=C([C@@H](O)C(=O)[C@@]21C)C3(C)C` (stereo partly drawn) [Compound 4304], the IC50 is below 10 nM.

Regarding `COC(=O)O[C@H]1C[C@H]2OC[C@@]2(OC(C)=O)C2[C@H](OC(=O)c3ccccc3)[C@]3(O)C[C@H](OC(=O)[C@H](O)[C@@H](NC(=O)OCC(C)C)c4cccs4)C(C)=C([C@@H](O)C(=O)[C@@]21C)C3(C)C` (stereo partly drawn) [Compound 4355], the IC50 was below 1 nM. Still for that read-out and setting: the same measure for `CCOC(=O)O[C@H]1C[C@H]2OC[C@@]2(OC(C)=O)C2[C@H](OC(=O)c3ccccc3)[C@]3(O)C[C@H](OC(=O)[C@H](O)[C@@H](NC(=O)OCC(C)C)c4cccs4)C(C)=C([C@@H](O)C(=O)[C@@]21C)C3(C)C` (stereo partly drawn) [Compound 4363]: below 10 nM. Same read-out and setting: the result for `CCOC(=O)O[C@H]1C(=O)[C@@]2(C)C([C@H](OC(=O)c3ccccc3)[C@]3(O)C[C@H](OC(=O)[C@H](O)[C@@H](NC(=O)C=C(C)C)c4cccs4)C(C)=C1C3(C)C)[C@]1(OC(C)=O)CO[C@@H]1C[C@@H]2O` (stereo partly drawn) [Compound 4374] reads below 1 nM. Same read-out and setting: the result for `COC(=O)O[C@H]1C[C@H]2OC[C@@]2(OC(C)=O)C2[C@H](OC(=O)c3ccccc3)[C@]3(O)C[C@H](OC(=O)[C@H](O)[C@@H](NC(=O)c4ccccc4)c4cccs4)C(C)=C([C@@H](O)C(=O)[C@@]21C)C3(C)C` (stereo partly drawn) [Compound 4411] reads below 1 nM; that for `COC(=O)O[C@H]1C[C@H]2OC[C@@]2(OC(C)=O)C2[C@H](OC(=O)c3ccccc3)[C@]3(O)C[C@H](OC(=O)[C@H](O)[C@@H](NC(=O)c4cccs4)c4cccs4)C(C)=C([C@@H](O)C(=O)[C@@]21C)C3(C)C` (stereo partly drawn) [Compound 4424], below 1 nM. Regarding `COC(=O)O[C@H]1C[C@H]2OC[C@@]2(OC(C)=O)C2[C@H](OC(=O)c3ccccc3)[C@]3(O)C[C@H](OC(=O)[C@H](O)[C@@H](NC(=O)OC(C)(C)C)c4ccoc4)C(C)=C([C@@H](O)C(=O)[C@@]21C)C3(C)C` (stereo partly drawn) [Compound 4434], the IC50 was below 1 nM. Regarding `COC(=O)O[C@H]1C[C@H]2OC[C@@]2(OC(C)=O)C2[C@H](OC(=O)c3ccccc3)[C@]3(O)C[C@H](OC(=O)[C@H](O)[C@@H](NC(=O)OC(C)(C)C)c4ccsc4)C(C)=C([C@@H](O)C(=O)[C@@]21C)C3(C)C` (stereo partly drawn) [Compound 4444], the IC50 was below 1 nM.

Still in this experiment, the particulars now being: HCT116 colony formation; 72 h drug incubation, colonies counted after 7 days; Example 5, C-7 ester/C-10 hydroxy taxanes; read-out: IN VITRO ID 50 (nm) HCT116.
As to `CCCC(=O)O[C@H]1C[C@H]2OC[C@@]2(OC(C)=O)C2[C@H](OC(=O)c3ccccc3)[C@]3(O)C[C@H](OC(=O)[C@H](O)[C@@H](NC(=O)OC(C)C)c4cccs4)C(C)=C([C@@H](O)C(=O)[C@@]21C)C3(C)C` (stereo partly drawn) [Compound 4135], the IC50 is below 1 nM. In the case of `CCCC(=O)O[C@H]1C[C@H]2OC[C@@]2(OC(C)=O)C2[C@H](OC(=O)c3ccccc3)[C@]3(O)C[C@H](OC(=O)[C@H](O)[C@@H](NC(=O)c4ccccc4)c4cccs4)C(C)=C([C@@H](O)C(=O)[C@@]21C)C3(C)C` (stereo partly drawn) [Compound 4175], the IC50 was below 10 nM. Take `CCCC(=O)O[C@H]1C[C@H]2OC[C@@]2(OC(C)=O)C2[C@H](OC(=O)c3ccccc3)[C@]3(O)C[C@H](OC(=O)[C@H](O)[C@@H](NC(=O)c4ccco4)c4cccs4)C(C)=C([C@@H](O)C(=O)[C@@]21C)C3(C)C` (stereo partly drawn) [Compound 4219]: the IC50 is 29 nM.

`CCCC(=O)O[C@H]1C[C@H]2OC[C@@]2(OC(C)=O)C2[C@H](OC(=O)c3ccccc3)[C@]3(O)C[C@H](OC(=O)[C@H](O)[C@@H](NC(=O)OC(C)(C)C)c4cccs4)C(C)=C([C@@H](O)C(=O)[C@@]21C)C3(C)C` (stereo partly drawn) [Compound 4256]: the IC50 was below 1 nM. Same read-out and setting: the result for `CCCC(=O)O[C@H]1C[C@H]2OC[C@@]2(OC(C)=O)C2[C@H](OC(=O)c3ccccc3)[C@]3(O)C[C@H](OC(=O)[C@H](O)[C@@H](NC(=O)C=C(C)C)c4cccs4)C(C)=C([C@@H](O)C(=O)[C@@]21C)C3(C)C` (stereo partly drawn) [Compound 4283] reads below 1 nM. As to `CCCC(=O)O[C@H]1C[C@H]2OC[C@@]2(OC(C)=O)C2[C@H](OC(=O)c3ccccc3)[C@]3(O)C[C@H](OC(=O)[C@H](O)[C@@H](NC(=O)OCC(C)C)c4cccs4)C(C)=C([C@@H](O)C(=O)[C@@]21C)C3(C)C` (stereo partly drawn) [Compound 4290], the IC50 is below 10 nM. For the compound `CCCC(=O)O[C@H]1C[C@H]2OC[C@@]2(OC(C)=O)C2[C@H](OC(=O)c3ccccc3)[C@]3(O)C[C@H](OC(=O)[C@H](O)[C@@H](NC(=O)C=C(C)C)c4cccs4)C(C)=C([C@@H](O)C(=O)[C@@]21C)C3(C)C` (stereo partly drawn) [Compound 4312], the IC50 is below 1 nM. Same read-out and setting: the result for `CCCC(=O)O[C@H]1C[C@H]2OC[C@@]2(OC(C)=O)C2[C@H](OC(=O)c3ccccc3)[C@]3(O)C[C@H](OC(=O)[C@H](O)[C@@H](NC(=O)c4cccs4)c4cccs4)C(C)=C([C@@H](O)C(=O)[C@@]21C)C3(C)C` (stereo partly drawn) [Compound 4388] reads below 1 nM; that for `CCCC(=O)O[C@H]1C[C@H]2OC[C@@]2(OC(C)=O)C2[C@H](OC(=O)c3ccccc3)[C@]3(O)C[C@H](OC(=O)[C@H](O)[C@@H](NC(=O)OC(C)(C)C)c4ccoc4)C(C)=C([C@@H](O)C(=O)[C@@]21C)C3(C)C` (stereo partly drawn) [Compound 4394], below 1 nM. With `CCCC(=O)O[C@H]1C[C@H]2OC[C@@]2(OC(C)=O)C2[C@H](OC(=O)c3ccccc3)[C@]3(O)C[C@H](OC(=O)[C@H](O)[C@H](C=C(C)C)NC(=O)OC(C)(C)C)C(C)=C([C@@H](O)C(=O)[C@@]21C)C3(C)C` (stereo partly drawn) [Compound 4406], the IC50 is below 1 nM. As for `CCCC(=O)O[C@H]1C[C@H]2OC[C@@]2(OC(C)=O)C2[C@H](OC(=O)c3ccccc3)[C@]3(O)C[C@H](OC(=O)[C@H](O)[C@@H](NC(=O)c4ccccc4)c4cccs4)C(C)=C([C@@H](O)C(=O)[C@@]21C)C3(C)C` (stereo partly drawn) [Compound 4414], the IC50 is below 1 nM.

Take `CCCC(=O)O[C@H]1C[C@H]2OC[C@@]2(OC(C)=O)C2[C@H](OC(=O)c3ccccc3)[C@]3(O)C[C@H](OC(=O)[C@H](O)[C@@H](NC(=O)OC(C)(C)C)c4ccsc4)C(C)=C([C@@H](O)C(=O)[C@@]21C)C3(C)C` (stereo partly drawn) [Compound 4446]: the IC50 was below 1 nM.

Still in this experiment, the particulars now being: HCT116 colony formation; 72 h drug incubation, colonies counted after 7 days; Example 10, C-10 ester/C-7 hydroxy taxanes; read-out: IN VITRO ID 50 (nm) HCT116.
For `CCC(=O)O[C@H]1C(=O)[C@@]2(C)C([C@H](OC(=O)c3ccccc3)[C@]3(O)C[C@H](OC(=O)[C@H](O)[C@@H](NC(=O)c4cccnc4)c4cccs4)C(C)=C1C3(C)C)[C@]1(OC(C)=O)CO[C@@H]1C[C@@H]2O` (stereo partly drawn) [Compound 4121], the IC50 is below 10 nM. Consider `CCCC(=O)O[C@H]1C(=O)[C@@]2(C)C([C@H](OC(=O)c3ccccc3)[C@]3(O)C[C@H](OC(=O)[C@H](O)[C@@H](NC(=O)c4cccnc4)c4cccs4)C(C)=C1C3(C)C)[C@]1(OC(C)=O)CO[C@@H]1C[C@@H]2O` (stereo partly drawn) [Compound 4190], for which the IC50 is below 10 nM. Consider `CCC(=O)O[C@H]1C(=O)[C@@]2(C)C([C@H](OC(=O)c3ccccc3)[C@]3(O)C[C@H](OC(=O)[C@H](O)[C@@H](NC(=O)c4ccncc4)c4cccs4)C(C)=C1C3(C)C)[C@]1(OC(C)=O)CO[C@@H]1C[C@@H]2O` (stereo partly drawn) [Compound 4207], for which the IC50 was below 10 nM. Still for that read-out and setting: the same measure for `CC(=O)O[C@@]12CO[C@@H]1C[C@H](O)[C@@]1(C)C(=O)[C@H](OC(=O)C3CC3)C3=C(C)[C@@H](OC(=O)[C@H](O)[C@@H](NC(=O)C=C(C)C)c4cccs4)C[C@@](O)([C@@H](OC(=O)c4ccccc4)C12)C3(C)C` (stereo partly drawn) [Compound 4329]: below 1 nM; for `CCC(=O)O[C@H]1C(=O)[C@@]2(C)C([C@H](OC(=O)c3ccccc3)[C@]3(O)C[C@H](OC(=O)[C@H](O)[C@@H](NC(=O)C=C(C)C)c4cccs4)C(C)=C1C3(C)C)[C@]1(OC(C)=O)CO[C@@H]1C[C@@H]2O` (stereo partly drawn) [Compound 4335]: below 1 nM; for `CCCC(=O)O[C@H]1C(=O)[C@@]2(C)C([C@H](OC(=O)c3ccccc3)[C@]3(O)C[C@H](OC(=O)[C@H](O)[C@@H](NC(=O)C=C(C)C)c4cccs4)C(C)=C1C3(C)C)[C@]1(OC(C)=O)CO[C@@H]1C[C@@H]2O` (stereo partly drawn) [Compound 4344]: below 1 nM.
